Read-outs that look alike come from different tables or passages of the source. Ends that are not written are not given here.

We go through 9 compounds from patent US12286632B2, “Rationally-designed synthetic peptide shuttle agents for delivering polypeptide cargos from an extracellular space to the cytosol and/or nucleus of a target eukaryotic cell, uses thereof, methods and kits relating to same” (Feldan Bio Inc., priority 2016, dated 2025).

Data set [1] has as its system HeLa cells. In words: FITC-labeled anti-tubulin antibody transduction assay (flow cytometry, cell viability, microscopy). The conditions noted are these: FITC-labeled anti-tubulin antibody 0.5 μM, HeLa, 1 hour; shuttle 3.5 μM. The method, then:
The delivery and microscopy protocols are described in Example 3.
HeLa cells were cultured and tested in the protein transduction assay described in Example 3.1. […] The cells were subjected to flow cytometry analysis as described in Example 3.3.

A short description of data set [2]: in vitro. Conditions: human, THP-1 cells.
The nature of data set [3]: in vitro. The conditions noted are these: human, HeLa cells.
The subject of the next data set is T cells. The class given is cell-based, human. The method, then:
Unless otherwise specified, T cells used herein were obtained from healthy human blood collected in heparinized tubes. T cells were isolated using a Ficoll™ technique (Ficoll-Paque™ GE or Lymphoprep™ Stem Cell Technologies). Briefly, blood was mixed with the Ficoll™ solution in conical tubes (50 mL) and centrifuged at 2280 rpm for 20 minutes. Mononuclear cells were harvested and transferred in another conical tube (50 mL) before washing with PBS and centrifugation at 1100 rpm for 10 minutes. Cells were resuspended in 5 mL of PBS containing 20% FBS. Cells were counted and then incubated in a culture medium composed by RPMI advanced (cat: 12633012 ThermoFisher), 10% FBS, 1% Penstrep (15140122 ThermoFisher), 1% L-glutamine (25030081 ThermoFisher) IL-2 30U/ml). Next, T cells were enriched with a Human T cell Enrichment Kit (StemCell #cat: 19051) by negative selection following the manufacturer instructions. The enriched T cells were validated using a specific anti-CD3 antibody (Biolegend #cat: 300438). At this step, collected cells were typically around 99% T cells. T cells were activated by adding IL-2 at 30 U/mL and the anti-CD28 antibody (ThermoFisher #cat: 16-0289-85) in complete medium for 5 days prior to experimentation. The activation of T cell expansion was then double-checked with both anti-CD25 and anti-CD137 antibodies. […]

A short description of data set [4]: in vitro. The conditions noted are these: human, HeLa cells, Cell viability (%) (±St Dev.; n = 3).
Data set [5] is described as follows: Plasmid DNA (pEGFP-C1) transfection by peptides (% cells with GFP signal, cell viability). The conditions noted are these: human, HeLa cells.
A short description of data set [6]: in vitro.
Data set [7] has as its system HeLa cells. The format is cell-based, Human. The conditions noted are these: GFP 5 μM; 5 μM of each peptide; 1 hour; data not shown.
Data set [8] concerns HeLa cells. The format is cell-based. Conditions: peptide 5 μM; fold-increase relative to untreated calcein-loaded cells. From the text: Calcein is a membrane-impermeable fluorescent molecule that is readily internalized by cells when administered to the extracellular medium. Its fluorescence is […] and calcein self-quenches at higher concentrations. Once internalized, calcein becomes sequestered at high concentrations in cell endosomes and can be visualized by fluorescence microscopy as a punctate pattern. Following endosomal leakage, calcein is released to the cell cytoplasm and this release can be visualized by fluorescence microscopy as a diffuse pattern.
The cells were allowed to attach by incubating overnight in appropriate growth media, as described in Example 1. The next day, the media in wells was removed and replaced with 50 μL of fresh media without serum containing 62.5 μg/mL (100 μM) of calcein, except for HEK293A (250 μg/mL, 400 μM). […]
Untreated calcein-loaded cells were used as a control to distinguish cells having a baseline of fluorescence due to endosomally-trapped calcein from cells having increased fluorescence due to release of calcein from endosomes. Fluorescence signal means (“mean counts”) were analyzed for endosomal escape quantification. In some cases, the “Mean Factor” was calculated, which corresponds to the fold-increase of the mean counts relative to control (untreated calcein-loaded cells). […] The cellular mortality was monitored with the percentage of cells in the total events scanned. […]

The subject of data set [9] is HeLa cells. Conditions: human, 10 s, 50 µM.
In data set [10] the test system is HeLa cells. In words: GFP-NLS protein transduction assay (flow cytometry: Pos cells %, viability %, relative fluorescence intensity; microscopy). The conditions noted are these: Table 10.3b; Protocol B; HeLa; shuttle 50 μM; GFP-NLS 5 μM; 10 seconds.

Turning to `CC[C@H](C)[C@H](NC(=O)[C@H](CCCCN)NC(=O)[C@H](CCCCN)NC(=O)[C@H](Cc1ccccc1)NC(=O)[C@H](CC(C)C)NC(=O)[C@H](CCCCN)NC(=O)[C@H](Cc1c[nH]c2ccccc12)NC(=O)[C@@H](N)CCCCN)C(=O)NCC(=O)N[C@@H](C)C(=O)N[C@H](C(=O)N[C@@H](CC(C)C)C(=O)N[C@@H](CCCCN)C(=O)N[C@H](C(=O)N[C@@H](CC(C)C)C(=O)N[C@H](C(=O)N[C@H](C(=O)NCC(=O)N[C@@H](CCCNC(=N)N)C(=O)N[C@@H](CCC(N)=O)C(=O)N[C@H](C(=O)N[C@@H](CCCCN)C(=O)N[C@H](C(=O)N[C@@H](Cc1c[nH]c2ccccc12)C(=O)N[C@@H](Cc1ccccc1)C(=O)N[C@@H](CCC(N)=O)C(=O)N[C@@H](CC(N)=O)C(=O)N[C@@H](CCCNC(=N)N)C(=O)N[C@@H](CCCNC(=N)N)C(=O)N[C@@H](CCSC)C(=O)N[C@@H](CCCCN)C(=O)N[C@@H](Cc1c[nH]c2ccccc12)C(=O)N[C@@H](CCCCN)C(=O)N[C@@H](CCCCN)C(=O)N[C@@H](CS)C(=O)O)[C@@H](C)CC)[C@@H](C)CC)[C@@H](C)O)[C@@H](C)O)C(C)C)C(C)C` [CM18-Penetratin-Cys], the “FIG. 19B Cell viability (%) (± St. Dev.; n = 3)” value in the data set with HeLa cells [1] was 73 ± 9.5%.

HHHHHHFLKIWSRLIKIWTQGRRKGAQAAFR [FSD21] returned a viability at 15 s, 5 µM in “in vitro [2]” of 62.5 ± 5.16%. The compound further returned a viability at 0.5 min, 2 µM in “in vitro [2]” of 75.6 ± 6.38%. In addition, the viability in “in vitro [3]” amounted to 96.2 ± 1.69%; in “in vitro [4]” it was 75.6 ± 5.99%. In the data set with T cells, the “viability of transduced T cells (FSC/SSC, in words)” value is listed as “viability of the transduced T cells was not substantially affected”.

Take “HHHHHHVWKLFWTLLAAIYGRGKARQKRAKRQARG [Peptide F5D25]”: the viability in [5] was 98.2 ± 1.19%.

The compound HHHHHHYARAAARQARA [Peptide 6His-PTD4] registered a viability in data set [5] of 97.2 ± 1.34%.

As to “LLKLWSRLLKLWTQGGSGGGSGRRLKAKRAKA [FSD18]”, in the data set “in vitro [2]”, the viability at 0.5 min, 2 µM is 97.9 ± 1.73%; the viability at 1 min, 1 µM was 95.3 ± 3.11%; the viability at 1 min, 2 µM was determined as 98.6 ± 0.37%; the viability at 0.025 h, 1 µM came to 86.5 ± 6.27%. In addition, the “viability of transduced T cells (FSC/SSC, in words)” value in the data set with T cells is “viability of the transduced T cells was not substantially affected”. The compound also yielded a viability in “in vitro [4]” of 82.4%. In “in vitro [6]” (NK cells), this compound gave a viability at 0.25 h, 5 µM of 94.9 ± 1.63%; a viability at 0.5 h, 2 µM of 98.3 ± 1%; a viability at 1.5 h, 1 µM of 99.1 ± 0.08%. In “in vitro [6]” (human, DOHH2 cells), this compound came in with a viability at 0.5 h, 2 µM of 79.8 ± 6.18%; a viability at 0.5 h, 10 µM of 25 ± 2.66%; a viability at 1.5 h, 1 µM of 62.5 ± 6.17%. For the same compound, in the data set “in vitro [6]” (human, Jurkat cells), the viability at 0.5 h, 2 µM turned out to be 97.4 ± 1.09%; the viability at 0.5 h, 10 µM was found to be 96.6 ± 2.46%; the viability at 1.5 h, 1 µM worked out at 98.6 ± 0.39%. In the data set “in vitro [6]” (human, KMS-12BM cells), this compound yielded a viability at 0.5 h, 2 µM of 95.1 ± 3.56%; a viability at 0.5 h, 10 µM of 92.7 ± 4.11%; a viability at 1.5 h, 1 µM of 97.6 ± 1.05%. In the data set “in vitro [6]” (human, REC-1 cells), this compound came in with a viability at 0.5 h, 2 µM of 99 ± 0.39%; a viability at 0.5 h, 10 µM of 25 ± 3.17%; a viability at 1.5 h, 1 µM of 96.2 ± 2.53%. Also, in the data set “in vitro [6]” (mouse, HT2 cells), the viability at 0.5 h, 2 µM came out at 80.7 ± 7.1%; the viability at 0.5 h, 10 µM was determined as 63.9 ± 5.35%; the viability at 1.5 h, 1 µM came out at 88.3 ± 7.91%.

With “RQIKIWFQNRRMKWKKC [Penetratin-Cys, reference compound]”, the “GFP intracellular delivery (fluorescence microscopy)” value with HeLa cells [7] is listed as “not successfully delivered intracellularly”. For the same compound, the “Mean Factor” value in the data set with HeLa cells [8] was 1.1.

As for YARAAARQARA [PTD4, reference compound], the viability in “in vitro [3]” amounted to 98.2 ± 0.69%. Moreover, in the data set with HeLa cells [9], the “Cell viability (%) (±St. Dev.; n = 3)” value came out at 94 ± 4.5%.

As to “YARAAARQARAWEAKLAKALAKALAKHLAKALAKALKACEA [PTD4-KALA]”, the “Cell viability (%) (±St. Dev.; n = 3)” value in the data set with HeLa cells [10] turned out to be 91.4 ± 3.67%. The viability in data set [5] was found to be 53.6 ± 3.91%.

“YGRKKRRQRRRC [TAT-Cys, CPD single-domain peptide with C-terminal Cys, reference compound]”: the “GFP intracellular delivery (fluorescence microscopy)” value in the data set with HeLa cells [7] was “not successfully delivered intracellularly”. In addition, in the data set on HeLa cells [8], the “Mean Factor” value is on record as 1.3.
